Laboratory results reported in patent US12583858B2 (Genentech, Inc., priority 2015, dated 2026).

These molecules were tested against T1, TDO2 (Homo sapiens, UniProt P48775) (assay: TDO2 cell assay (NFK GreenScreen, SW48 cells)). Settings: SW48 cells (high TDO expressing), 200 uM tryptophan, 24 hours; Table 3; read-out: TDO2 Cell Fluor EC50.
T1 construct: decreased levels of NFK in SW48 cells (high TDO expressing cells)
Type: cell-based

T1 sequence (P48775 whole entry): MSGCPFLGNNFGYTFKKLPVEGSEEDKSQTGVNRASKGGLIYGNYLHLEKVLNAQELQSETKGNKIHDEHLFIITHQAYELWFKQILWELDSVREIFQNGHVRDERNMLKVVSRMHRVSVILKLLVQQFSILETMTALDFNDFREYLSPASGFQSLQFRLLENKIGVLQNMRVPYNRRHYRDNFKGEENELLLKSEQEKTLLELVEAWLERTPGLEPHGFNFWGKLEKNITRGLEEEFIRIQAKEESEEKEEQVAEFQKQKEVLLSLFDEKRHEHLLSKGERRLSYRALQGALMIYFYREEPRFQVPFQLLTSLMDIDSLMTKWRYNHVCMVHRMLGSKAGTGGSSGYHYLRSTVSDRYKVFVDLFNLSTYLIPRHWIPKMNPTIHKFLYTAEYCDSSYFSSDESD

| EC50 | SMILES |
| --- | --- |
| 2.5 µM | CN(C)C(=O)c1ccc2c(c1)CCC(C1c3ccccc3-c3cncn31)C2O (single isomer, unassigned) [Example 98f] |
| > 25 µM | CC(C)[C@@H](O)[C@H]1c2ccc(F)cc2-c2cncn21 [Example 135b, (R)-1-((R)-8-fluoro-5H-imidazo[5,1-a]isoindol-5-yl)-2-methylpropan-1-ol] |
| > 25 µM | O[C@@H]1c2cccn2CC[C@@H]1[C@@H]1c2ccccc2-c2cncn21 [Example 136b, (7R,8S)-7-((R)-5H-imidazo[5,1-a]isoindol-5-yl)-5,6,7,8-tetrahydroindolizin-8-ol] |
| > 25 µM | Cn1cc2c(n1)C(O)C(C1c3ccccc3-c3cncn31)CC2 (single isomer, unassigned) [Example 139-1b] |
| 0.058 µM | CS(=O)(=O)c1ccc2c(c1)CCC(C1c3ccccc3-c3cncn31)C2O (single isomer, unassigned) [Example 36b] |
| 0.21 µM | O[C@@H]1CCOC[C@H]1[C@H]1c2ccccc2-c2cncn21 [Example 05b, (3R,4R)-3-((S)-5H-imidazo[5,1-a]isoindol-5-yl)-tetrahydro-2H-pyran-4-ol] |
| 0.37 µM | OC1c2ccnn2CCC1C1c2ccccc2-c2cncn21 (single isomer, unassigned) [Example 56b] |
| 0.93 µM | O[C@@H]1[C@@H]([C@H]2c3ccccc3-c3cncn32)CCCC1(F)F (single isomer, unassigned) [Example 106d] |
| 0.12 µM | Cc1nc2c(o1)CCC(C1c3ccccc3-c3cncn31)C2O (single isomer, unassigned) [Example 178a] |
| > 25 µM | CC(C)C(O)C1c2ccccc2-c2cncn21 (single isomer, unassigned) [Example 51a] |
| > 25 µM | O=S(=O)(C1CC1)N1CC[C@@H]([C@@H]2c3ccccc3-c3cncn32)[C@H](O)C1 (single isomer, unassigned) [Example 81b] |
| 0.057 µM | CC1(C)CCCC(C2c3ccccc3-c3cncn32)C1O (single isomer, unassigned) [Example 24a] |
| > 25 µM | OC1c2cnncc2CCC1C1c2ccccc2-c2cncn21 (single isomer, unassigned) [Example 112e] |
| 21 µM | OC1c2nccn2CCC1C1c2ccccc2-c2cncn21 (single isomer, unassigned) [Example 88d] |
| > 25 µM | OC1c2nccn2CCC1C1c2ccccc2-c2cncn21 (single isomer, unassigned) [Example 88b] |
| 0.44 µM | OC1c2nonc2CCC1C1c2ccccc2-c2cncn21 (single isomer, unassigned) [Example 163g] |
| 0.52 µM | N#Cc1ccc2c(c1)CCC(C1c3ccccc3-c3cncn31)C2O (single isomer, unassigned) [Example 62e] |
| 3.1 µM | Cn1cc2c(n1)CCC(C1c3ccccc3-c3cncn31)C2O (single isomer, unassigned) [Example 130e] |
| 2.4 µM | N#Cc1cnc2c(c1)CCC(C1c3ccccc3-c3cncn31)C2O (single isomer, unassigned) [Example 107d] |
| > 25 µM | OC1c2c(F)cnn2CCC1C1c2ccccc2-c2cncn21 (single isomer, unassigned) [Example 151c] |
| > 25 µM | Nc1ccc2c(n1)CCC(C1c3ccccc3-c3cncn31)C2O (single isomer, unassigned) [Example 121g] |

| EC50 | SMILES |
| --- | --- |
| 0.43 µM | OC1CCCC1C1c2ccc(F)cc2-c2cncn21 (single isomer, unassigned) [Example 20b] |
| 3.5 µM | OC1COCCC1C1c2ccc(F)cc2-c2cncn21 (single isomer, unassigned) [Example 33c] |
| 0.43 µM | OC1c2cc(C(F)F)nn2CCC1C1c2ccccc2-c2cncn21 (single isomer, unassigned) [Example 173b] |
| > 25 µM | CC1(O)CCC1C1c2ccccc2-c2cncn21 (single isomer, unassigned) [Example 35a] |
| 14 µM | N#Cc1ccc2c(c1)CCC(C1c3ccccc3-c3cncn31)C2O (single isomer, unassigned) [Example 62g] |
| 0.86 µM | CN(C)C(=O)c1ccc2c(c1)CCC(C1c3ccccc3-c3cncn31)C2O (single isomer, unassigned) [Example 98g] |
| 6 µM | O[C@@H]1c2c(Cl)cnn2CC[C@@H]1[C@H]1c2ccccc2-c2cncn21 (single isomer, unassigned) [Example 160d] |
| 1.4 µM | NC(=O)c1nc2c(s1)CCC(C1c3ccccc3-c3cncn31)C2O (single isomer, unassigned) [Example 149e] |
| 0.78 µM | CC1(C)C[C@@H](O)[C@H]1[C@H]1c2ccccc2-c2cncn21 (single isomer, unassigned) [Example 22g] |
| 3.5 µM | NC(=O)C1CCC(O)(C2c3ccccc3-c3cncn32)CC1 (single isomer, unassigned) [Example 140d] |
| 2.3 µM | CS(=O)(=O)c1ccc2c(c1)OCC(C1c3ccccc3-c3cncn31)C2O (single isomer, unassigned) [Example 91g] |
| 0.16 µM | CC1(C)COCC(C2c3ccccc3-c3cncn32)C1O (single isomer, unassigned) [Example 66f] |
| 19 µM | OC1c2ncccc2CCC1C1c2ccccc2-c2cncn21 (single isomer, unassigned) [Example 63b] |
| > 25 µM | N#Cc1cc2n(n1)CCC(C1c3ccccc3-c3cncn31)C2O (single isomer, unassigned) [Example 174a] |
| 23 µM | O[C@H]1CCOC[C@@H]1[C@@H]1c2ccccc2-c2cncn21 [Example 05a, (3S,4S)-3-((R)-5H-imidazo[5,1-a]isoindol-5-yl)-tetrahydro-2H-pyran-4-ol] |
| 0.54 µM | NS(=O)(=O)N1CCC2(CCC(C3c4ccccc4-c4cncn43)C2O)CC1 (single isomer, unassigned) [Example 182b] |
| 0.91 µM | CCS(=O)(=O)N1CCC2(CC1)CC(C1c3ccccc3-c3cncn31)C2O (single isomer, unassigned) [Example 114f] |
| 0.4 µM | OC1C(C2c3ccccc3-c3cncn32)CC12CCOCC2 (single isomer, unassigned) [Example 57c] |
| > 25 µM | OC1c2[nH]ncc2CCC1C1c2ccccc2-c2cncn21 (single isomer, unassigned) [Example 157f] |
| 0.73 µM | OC1COCCC1C1c2cccc(F)c2-c2cncn21 (single isomer, unassigned) [Example 99d] |
| 8.3 µM | O[C@@H]1c2ccncc2CC[C@@H]1[C@@H]1c2ccccc2-c2cncn21 (single isomer, unassigned) [Example 08g] |

| EC50 | SMILES |
| --- | --- |
| 18 µM | OC1CC2(COC2)C1C1c2ccccc2-c2cncn21 (single isomer, unassigned) [Example 87a] |
| > 25 µM | OC(c1ccncc1)C1c2ccccc2-c2cncn21 (single isomer, unassigned) [Example 152c] |
| 1.3 µM | OC1c2cnccc2CCC1C1c2ccccc2-c2cncn21 (single isomer, unassigned) [Example 04a] |
| 7.8 µM | Nc1ncc2c(n1)CCC(C1c3ccccc3-c3cncn31)C2O (single isomer, unassigned) [Example 111c] |
| 0.1 µM | O[C@H]1c2ccncc2CC[C@H]1[C@H]1c2ccccc2-c2cncn21 (single isomer, unassigned) [Example 08h] |
| 0.41 µM | CC1(C)CCCC(C)(C2c3ccccc3-c3cncn32)C1O (single isomer, unassigned) [Example 90f] |
| 0.8 µM | CC(C)(C)OC(=O)N1CC2(CC(C3c4ccccc4-c4cncn43)C2O)C1 (single isomer, unassigned) [Example 41b, tert-butyl 7-hydroxy-6-(5H-imidazo[1,5-b]isoindol-5-yl)-2-azaspiro[3.3]heptane-2-carboxylate] |
| 5.4 µM | OC(C1c2ccccc2-c2cncn21)C1(F)CC1 (single isomer, unassigned) [Example 154c] |
| 16 µM | NS(=O)(=O)c1ccc2c(c1)C(O)C(C1c3ccccc3-c3cncn31)CC2 (single isomer, unassigned) [Example 105f] |
| > 25 µM | O[C@@H](C1CCOCC1)[C@H]1c2ccccc2-c2cncn21 (single isomer, unassigned) [Example 138b] |
| 1.1 µM | OC1CC2(CCC2)C1C1c2ccccc2-c2cncn21 (single isomer, unassigned) [Example 67c] |
| > 25 µM | CC1(C)CCCC(C)(C2c3ccccc3-c3cncn32)C1O (single isomer, unassigned) [Example 90a] |
| 3 µM | OC1c2ccnn2CCCC1C1c2ccccc2-c2cncn21 (single isomer, unassigned) [Example 133g] |
| 2.86 µM | OC1(C2c3ccccc3-c3cncn32)CCOCC1 (racemic) [Example 43, 4-(5H-imidazo[5,1-a]isoindol-5-yl)tetrahydro-2H-pyran-4-ol] |
| 14 µM | CC(C)S(=O)(=O)N1CCC(C2c3ccccc3-c3cncn32)C(O)C1 (single isomer, unassigned) [Example 89a] |
| > 25 µM | O[C@@H]1c2cccnc2CC[C@@H]1[C@@H]1c2ccccc2-c2cncn21 [Example 31a, (5S,6R)-6-((R)-5H-imidazo[5,1-a]isoindol-5-yl)-5,6,7,8-tetrahydroquinolin-5-ol] |
| 0.93 µM | NS(=O)(=O)N1CCC2(CC1)CC(C1c3ccccc3-c3cncn31)C2O (single isomer, unassigned) [Example 181g] |
| 15 µM | OC1c2nonc2CCC1C1c2ccccc2-c2cncn21 (single isomer, unassigned) [Example 163c] |
| 3.4 µM | NC(=O)c1ccc2c(n1)CCC(C1c3ccccc3-c3cncn31)C2O (single isomer, unassigned) [Example 104e] |
| 0.067 µM | O[C@@H]1c2ncsc2CC[C@H]1[C@H]1c2ccccc2-c2cncn21 [Example 125b, (4S,5S)-5-((S)-5H-imidazo[5,1-a]isoindol-5-yl)-4,5,6,7-tetrahydrobenzo[d]thiazol-4-ol] |
| > 25 µM | O=c1cccc2n1CCC(C1c3ccccc3-c3cncn31)C2O (single isomer, unassigned) [Example 29f, 1-hydroxy-2-(5H-imidazo[5,1-a]isoindol-5-yl)-3,4-dihydro-1H-quinolizin-6(2H)-one] |
